{"source": "paper PMC11672294", "about": "“The Antipsychotic Drug Aripiprazole Suppresses Colorectal Cancer by Targeting LAMP2a to Induce RNH1/miR‐99a/mTOR‐Mediated Autophagy and Apoptosis” (Advanced Science, 2024)", "note": "Counter-ions that a name gives are not always drawn.", "data": [{"tested_on": "HT29", "conditions": "72 h, relative to DMSO, 10 µM, Relative cell viability (%)", "outline": "(§1)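 Cells were exposed to drug for 72 h, then to WST-1 for 2 h at 37 °C, and absorbance was read at 450 nm as viability against DMSO treatment. In the screen, each compound was applied at 10 µM.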", "units": {"Relative cell viability (%)": "%"}, "values": [{"smiles": "COc1cc(Nc2ncc(F)c(Nc3ccc4c(n3)N(COP(=O)(O)O)C(=O)C(C)(C)O4)n2)cc(OC)c1OC", "note": "[R788 (Fostamatinib) Disodium]", "Relative cell viability (%)": 100.8}, {"smiles": "O=C(O)Cc1ccccc1Nc1c(Cl)cccc1Cl", "note": "[Diclofenac Potassium]", "Relative cell viability (%)": 69.42}, {"smiles": "CN1CCN(c2ccc3nc(-c4c(N)c5c(F)cccc5[nH]c4=O)[nH]c3c2)CC1", "note": "[Dovitinib (TKI-258) Dilactic Acid]", "Relative cell viability (%)": 12.62}, {"smiles": "O=C(O)Cc1ccccc1Nc1c(Cl)cccc1Cl", "note": "[Diclofenac Diethylamine]", "Relative cell viability (%)": 60.68}, {"smiles": "C[C@@H]1CCN(C(=O)CC#N)C[C@@H]1N(C)c1ncnc2[nH]ccc12", "note": "[Tofacitinib (CP-690550,Tasocitinib)]", "Relative cell viability (%)": 51.94}, {"smiles": "COc1cc2nc(N3CCN(C(=O)C4CCCO4)CC3)nc(N)c2cc1OC", "note": "(stereo not shown) [Terazosin HCl]", "Relative cell viability (%)": 142.1}]}, {"tested_on": "HT29", "conditions": "72 h, relative to DMSO; 10 µM", "outline": "as §1", "units": {"Relative cell viability (%)": "%"}, "values": [{"smiles": "C[C@@H]1CC(=O)NN=C1c1ccc(NN=C(C#N)C#N)cc1", "note": "[Levosimendan]", "Relative cell viability (%)": 103.1}, {"smiles": "CCN(Cc1ccncc1)C(=O)C(CO)c1ccccc1", "note": "(stereo not shown) [Tropicamide]", "Relative cell viability (%)": 144.5}, {"smiles": "OC[C@H]1O[C@@H](c2ccc(Cl)c(Cc3ccc(O[C@H]4CCOC4)cc3)c2)[C@H](O)[C@@H](O)[C@@H]1O", "note": "[Empagliflozin (BI 10773)]", "Relative cell viability (%)": 75.21}, {"smiles": "Nc1c(CC(=O)O)cccc1C(=O)c1ccc(Br)cc1", "note": "[Bromfenac Sodium]", "Relative cell viability (%)": 78.48}, {"smiles": "Cc1cc(/C=C/C#N)cc(C)c1Nc1ccnc(Nc2ccc(C#N)cc2)n1", "note": "[Rilpivirine]", "Relative cell viability (%)": 58.55}, {"smiles": "O=C(/C=C\\n1cnc(-c2cc(C(F)(F)F)cc(C(F)(F)F)c2)n1)NNc1cnccn1", "note": "[KPT-330]", "Relative cell viability (%)": 44.44}, {"smiles": "Nc1nc(O)c2ncn(COC(CO)CO)c2n1", "note": "[Ganciclovir]", "Relative cell viability (%)": 103.4}, {"smiles": "CN1CCC(=C2c3ccccc3C=Cc3ccccc32)CC1", "note": "[Cyproheptadine HCl]", "Relative cell viability (%)": 44.58}, {"smiles": "CN(C)[C@@H]1C(O)=C(C(N)=O)C(=O)[C@@]2(O)C(O)=C3C(=O)c4c(O)ccc(Cl)c4[C@@H](O)[C@H]3C[C@@H]12", "note": "[Demeclocycline HCl]", "Relative cell viability (%)": 74.85}, {"smiles": "NC(=O)c1cccnc1", "note": "[Nicotinamide (Vitamin B3)]", "Relative cell viability (%)": 113.7}, {"smiles": "O=C(O)CSCC(=O)NC1CCSC1=O", "note": "(stereo not shown) [Erdosteine]", "Relative cell viability (%)": 104.7}, {"smiles": "COc1ccc2cccc(CCNC(C)=O)c2c1", "note": "[Agomelatine]", "Relative cell viability (%)": 61.84}, {"smiles": "CN(C)CCCN1c2ccccc2Sc2ccc(Cl)cc21", "note": "[Chlorpromazine HCl]", "Relative cell viability (%)": 93.71}, {"smiles": "CO[C@H]1C(=O)[C@]2(C)[C@@H](OC)C[C@H]3OC[C@@]3(OC(C)=O)[C@H]2[C@H](OC(=O)c2ccccc2)[C@]2(O)C[C@H](OC(=O)[C@H](O)[C@@H](NC(=O)OC(C)(C)C)c3ccccc3)C(C)=C1C2(C)C", "note": "[Cabazitaxel]", "Relative cell viability (%)": 12.62}, {"smiles": "Oc1c(Br)cc(Br)c2cccnc12", "note": "[Broxyquinoline]", "Relative cell viability (%)": 83.94}, {"smiles": "CCn1c(=O)c(-c2cc[nH]n2)cc2c(C)nc(N)nc21", "note": "[Voxtalisib (XL765, SAR245409)]", "Relative cell viability (%)": 31.62}, {"smiles": "CCN(CC)CCNC(=O)c1cc(Cl)c(N)cc1OC", "note": "[MetoclopraMide HCl]", "Relative cell viability (%)": 75.76}, {"smiles": "COc1c(N2CCNC(C)C2)c(F)cc2c(=O)c(C(=O)O)cn(C3CC3)c12", "note": "(stereo not shown) [Gatifloxacin]", "Relative cell viability (%)": 96.11}, {"smiles": "COC(=O)C1=C(C)NC(C)=C(C(=O)OCCN(C)Cc2ccccc2)C1c1cccc([N+](=O)[O-])c1", "note": "(stereo not shown) [Nicardipine HCl]", "Relative cell viability (%)": 83.03}, {"smiles": "CCOc1ccc2nc3cc(N)ccc3c(N)c2c1", "note": "[Ethacridine lactate monohydrate]", "Relative cell viability (%)": 39.39}, {"smiles": "CC1=C(CC(=O)O)c2cc(F)ccc2/C1=C\\c1ccc([S+](C)[O-])cc1", "note": "(stereo not shown) [Sulindac]", "Relative cell viability (%)": 216.9}, {"smiles": "CC(C)OC(=O)[C@H](C)N[P@](=O)(OC[C@H]1O[C@@H](n2ccc(=O)[nH]c2=O)[C@](C)(F)[C@@H]1O)Oc1ccccc1", "note": "[Sofosbuvir (PSI-7977, GS-7977)]", "Relative cell viability (%)": 121.8}, {"smiles": "Cc1ccc(C(=O)C(C)CN2CCCCC2)cc1", "note": "(stereo not shown) [Tolperisone HCl]", "Relative cell viability (%)": 89.39}, {"smiles": "C=CC(=O)Nc1cccc(Nc2nc(Nc3ccc(N4CCN(C(C)=O)CC4)cc3OC)ncc2C(F)(F)F)c1", "note": "[CO-1686 (AVL-301)]", "Relative cell viability (%)": 16.24}, {"smiles": "CCC(=O)O[C@]1(C(=O)SCF)[C@H](C)C[C@H]2[C@@H]3C[C@H](F)C4=CC(=O)C=C[C@]4(C)[C@@]3(F)[C@@H](O)C[C@@]21C", "note": "[Fluticasone propionate]", "Relative cell viability (%)": 173.6}, {"smiles": "CCOc1cc(N)c(Cl)cc1C(=O)NCC1CN(Cc2ccc(F)cc2)CCO1", "note": "(stereo not shown) [Mosapride Citrate]", "Relative cell viability (%)": 38.47}, {"smiles": "N#C[C@@H]1C[C@@H]2C[C@@H]2N1C(=O)[C@@H](N)C12CC3CC(CC(O)(C3)C1)C2", "note": "[Saxagliptin hydrate]", "Relative cell viability (%)": 117.5}, {"smiles": "CC[C@H]1OC(=O)[C@H](C)[C@@H](O[C@H]2C[C@@](C)(OC)[C@@H](O)[C@H](C)O2)[C@H](C)[C@@H](O[C@@H]2O[C@H](C)C[C@H](N(C)C)[C@H]2O)[C@](C)(O)C[C@@H](C)CN(C)[C@H](C)[C@@H](O)[C@]1(C)O", "note": "[Azithromycin]", "Relative cell viability (%)": 33.47}, {"smiles": "CCCC1O[C@@H]2C[C@H]3[C@@H]4CCC5=CC(=O)C=C[C@]5(C)[C@H]4[C@@H](O)C[C@]3(C)[C@]2(C(=O)CO)O1", "note": "(stereo partly shown) [Budesonide]", "Relative cell viability (%)": 83.64}, {"smiles": "CCCc1nn(C)c2c(=O)[nH]c(-c3cc(S(=O)(=O)N4CCN(C)CC4)ccc3OCC)nc12", "note": "[Sildenafil Mesylate]", "Relative cell viability (%)": 91.88}, {"smiles": "CNC(=O)[C@@H](NC(=O)[C@H](CC(C)C)[C@H](O)C(=O)NO)C(C)(C)C", "note": "[Marimastat(BB-2516)]", "Relative cell viability (%)": 121.4}, {"smiles": "C[C@H](CS)C(=O)N1CCC[C@H]1C(=O)O", "note": "[Captopril]", "Relative cell viability (%)": 243.5}, {"smiles": "CCCCCCCCCCCCCCCC(=O)O[C@@H]1[C@@H](O)[C@@H](O)[C@@H]([C@H](NC(=O)[C@@H]2C[C@@H](CCC)CN2C)[C@H](C)Cl)O[C@@H]1SC", "note": "[Clindamycin palmitate HCl]", "Relative cell viability (%)": 40.29}, {"smiles": "CC(=O)OCC(=O)[C@@]12OC(C)(C)O[C@@H]1C[C@H]1[C@@H]3C[C@H](F)C4=CC(=O)C=C[C@]4(C)[C@@]3(F)[C@@H](O)C[C@@]12C", "note": "[Fluocinonide]", "Relative cell viability (%)": 56.31}, {"smiles": "NC(=O)OCC(COC(N)=O)c1ccccc1", "note": "[Felbamate]", "Relative cell viability (%)": 69.63}, {"smiles": "C[C@@H]1[C@H](O)[C@@H](C)/C=C/C=C/CC/C=C/C=C/C=C/C=C/[C@H](O[C@H]2O[C@@H](C)[C@H](O)[C@@H](N)[C@H]2O)C[C@@H]2O[C@](O)(C[C@@H](O)[C@H](O)CC[C@@H](O)C[C@@H](O)C[C@@H](O)CC(=O)O[C@H]1C)C[C@H](O)[C@H]2C(=O)O", "note": "[Nystatin (Fungicidin)]", "Relative cell viability (%)": 170.8}, {"smiles": "N#CC(c1ccc(Cl)cc1)c1c(Cl)cc(-n2ncc(=O)[nH]c2=O)cc1Cl", "note": "(stereo not shown) [Diclazuril]", "Relative cell viability (%)": 219}, {"smiles": "CN(N=O)C(=O)N[C@@H](C=O)[C@@H](O)[C@H](O)[C@H](O)CO", "note": "[Streptozotocin (STZ)]", "Relative cell viability (%)": 74.3}, {"smiles": "NCCS", "note": "[Cysteamine HCl]", "Relative cell viability (%)": 89.39}, {"smiles": "COc1ccccc1OCC(O)CN1CCN(CC(=O)Nc2c(C)cccc2C)CC1", "note": "(stereo not shown) [Ranolazine]", "Relative cell viability (%)": 67.8}]}]}
